Data published in patent US20140179609A1, “Whey protein hydrolysate containing tryptophan peptide consisting of alpha lactalbumin and the use thereof” (Technische Universität Dresden, priority 2008, published 2014).
Where a SMILES comes first, the peptide text is derived from it.

Tests used:
ACE = biological target: T1, ACE (Oryctolagus cuniculus, UniProt P12822); test: ACE activity test (substrate HHL, hippuric acid quantified by RP HPLC); assay type: biochemical, rabbit; conditions: for IC50: dipeptides from Bachem, test as in Example 2, read-out: IC50 [μM] ACE-inhibiting activity; for ACE inhibiting action (in words): samples heat-treated at 100° C. for 10 minutes
T1 construct: The employed ACE is the rabbit lung enzyme obtained from Sigma-Aldrich; purchased Sigma-Aldrich; host or cells: rabbit lung (tissue-derived enzyme)
T1 sequence (P12822 34-1310): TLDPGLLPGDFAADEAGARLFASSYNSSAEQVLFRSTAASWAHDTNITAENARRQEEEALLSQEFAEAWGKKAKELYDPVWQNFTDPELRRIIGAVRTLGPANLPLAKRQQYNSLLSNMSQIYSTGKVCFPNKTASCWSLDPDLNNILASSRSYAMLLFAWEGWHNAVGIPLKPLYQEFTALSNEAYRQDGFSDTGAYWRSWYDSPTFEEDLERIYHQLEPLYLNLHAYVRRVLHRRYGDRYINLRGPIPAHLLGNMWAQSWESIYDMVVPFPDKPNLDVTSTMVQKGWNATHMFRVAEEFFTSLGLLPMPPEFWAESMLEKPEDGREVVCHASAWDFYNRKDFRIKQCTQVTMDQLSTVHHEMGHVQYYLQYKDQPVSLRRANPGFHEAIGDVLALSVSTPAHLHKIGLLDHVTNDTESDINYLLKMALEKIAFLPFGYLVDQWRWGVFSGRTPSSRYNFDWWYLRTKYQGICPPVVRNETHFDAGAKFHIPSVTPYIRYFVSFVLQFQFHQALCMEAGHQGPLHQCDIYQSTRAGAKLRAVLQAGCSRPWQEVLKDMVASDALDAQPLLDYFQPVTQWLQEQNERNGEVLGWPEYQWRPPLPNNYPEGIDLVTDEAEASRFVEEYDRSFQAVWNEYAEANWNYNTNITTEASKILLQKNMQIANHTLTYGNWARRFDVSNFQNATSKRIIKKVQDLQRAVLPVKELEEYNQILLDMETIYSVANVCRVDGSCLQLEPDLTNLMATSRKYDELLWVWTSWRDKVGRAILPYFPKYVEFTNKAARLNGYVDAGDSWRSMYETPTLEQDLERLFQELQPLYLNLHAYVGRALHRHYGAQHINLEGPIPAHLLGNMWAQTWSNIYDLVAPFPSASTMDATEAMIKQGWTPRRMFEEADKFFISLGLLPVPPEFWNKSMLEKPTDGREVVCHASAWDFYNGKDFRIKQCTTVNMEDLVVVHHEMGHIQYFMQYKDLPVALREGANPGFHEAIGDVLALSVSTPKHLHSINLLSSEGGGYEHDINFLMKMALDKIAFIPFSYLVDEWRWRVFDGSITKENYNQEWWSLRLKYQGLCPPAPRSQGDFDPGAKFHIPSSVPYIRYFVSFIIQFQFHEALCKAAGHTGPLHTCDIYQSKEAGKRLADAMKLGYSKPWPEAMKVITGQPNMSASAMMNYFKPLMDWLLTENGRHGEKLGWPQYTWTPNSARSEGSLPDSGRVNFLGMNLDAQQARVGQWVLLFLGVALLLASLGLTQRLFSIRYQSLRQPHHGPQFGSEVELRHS
Protocol: The determination of the ACE activity of the protein hydrolysates was carried out similar to a test disclosed by Cushman and Cheung in […] (Cushman, D. W. and Cheung, H.-S. Spectrophotometric Assay and Properties of Angiotensin-Converting Enzyme of Rabbit Lung, Biochemical Pharmacology, 1971, 20, 1637-1648). However, several modifications were carried out. The employed ACE is the rabbit lung enzyme obtained from Sigma-Aldrich. As a substrate N-benzoyl-glycyl-L-histidyl-L-leucin (HHL) was used which is considered to be analog to the natural substrate angiotensin I. ACE catalyzes the hydrolysis to L-histidyl-L-leucin (HL) and N-benzoyl-glycin (hippuric acid):
Since hippuric acid is UV-active (λmax=228 nm), it is possible, based on its contents determined by RP HPLC, to define the conversion rate and thus the enzyme activity. By means of a concentration series of the respective inhibitor solution, the inhibitor concentration can be determined that is required for lowering the ACE activity by one half (IC50).
In each series of measurements two enzyme blind values were carried along in which, in place of the sample solution, the same volume of double distilled water had been added. The blind value corresponds to 100% ACE activity. Calculation of the IC50 values was done by the software program SigmaPlot 5.0.
In addition to the samples that had been incubated for different lengths of time, also a blind value sample was analyzed that contained all employed enzymes and the whey protein powder in the same concentration as the hydrolysis samples. However, after addition of all substances, the enzymatic action was inactivated immediately by 10-minute incubation at 100° C. Also, possible effects by individual compounds on ACE were tested. For this purpose, the enzymes were inactivated and individually tested with respect to possible ACE inhibiting action. The same procedure was carried out with the whey protein powder. Whey protein powder that was not heat-treated was also tested with respect to its inhibiting action. For the determination of the IC50 value of the hydrolysis samples several concentrations were used in the ACE activity test. A protein concentration of 1000 mg protein/I was used as the basis. This parent solution was diluted 1:2, 1:5, 1:10, 1:20, 1:50, 1:100 and all solutions were tested with respect to their ACE inhibiting effect. Evaluation was also done with SigmaPlot 5.0.
In Table 12 the parameters measured by RP HPLC and LC-ESI-TOF-MS for the dipeptides according to the invention are listed. The Table contains also the IC50 values that were obtained for the dipeptides. […]

proteases = test: Stability of the dipeptides during enzymatic hydrolysis of whey protein (detection by GPC / LC-ESI-TOF-MS); conditions: hydrolysis with trypsin, Alcalase, Flavourzyme; found by GPC in all hydrolysates after three hours
Protocol: The whey protein Milei60 was hydrolyzed enzymatically by proteolytically acting enzymes, i.e., trypsin obtained from porcine pancreas (EC 3.4.21.4) as well as two further proteases, i.e., Alcalase® (Bacillus licheniformis) and Flavourzyme (Aspergillus oryzae). The following Table illustrates how hydrolysis is carried out.
The release of dipeptides Trp-Leu and Ile-Trp according to the invention during the course of hydrolysis was analyzed by GPC and LC-ESI-TOF-MS (liquid chromatography/electrospray ionization time of flight mass spectrometry).
In GPC the identification of the dipeptides was carried out by comparison with peaks of the standard peptides that were carried along.
The strongly ACE-inhibiting peptide Ile-Trp was detected unequivocally in the hydrolysates after a hydrolysis duration of three hours. Therefore, it appears to be accessible for the proteases only after a certain time has lapsed; this is true also for Trp-Leu.

[1] = system: spontaneously hypertensive rats; test: Feeding tests on spontaneously hypertensive rats; assay type: in vivo, rat
From the text: Administered was a preparation that contained the peptides according to the invention (PP), feed with intact whey protein (MP) as well as, as a control, a rat feed with captopril, a known ACE inhibiting agent as well as a placebo.
The basic importance of whey protein hydrolysates containing the tryptophan-containing peptides of the present invention for affecting the arterial blood pressure was objectified in animal tests on spontaneously hypertensive rats (FIG. 4). Here, the whey protein hydrolysate in comparison to a control diet caused a significant lowering of systolic blood pressure by 21±6 mm Hg after 7 weeks. Feeding captopril (ACE inhibitor of the first generation) lowered over the same time period the blood pressure by 28±7 mm Hg.
This implies comprehensive heart-protective and vessel-protective effects caused by the whey protein hydrolysate.

Molecule: CC[C@H](C)[C@H](N)C(=O)N[C@@H](Cc1c[nH]c2ccccc12)C(=O)O [Ile-Trp]
- IC50 (ACE): 0.7 µM
- stability with respect to further digestion to the amino acids (proteases): stable with respect to further digestion to the amino acids

Molecule: CC(C)C[C@H](NC(=O)[C@@H](N)Cc1c[nH]c2ccccc12)C(=O)O [Trp-Leu] (H-Trp-Leu-OH; N-terminus and C-terminus assumed)
- IC50 (ACE): 10 µM
- stability with respect to further digestion to the amino acids (proteases): stable with respect to further digestion to the amino acids

Molecule: C[C@H](CS)C(=O)N1CCC[C@H]1C(=O)O [captopril]
- lowering of systolic blood pressure ([1]; after 7 weeks, in comparison to a control diet): 28±7 mm Hg
- reduced heart mass ([1]; in comparison to controls): 16%

B1: Alcalase: protease from Bacillus licheniformis, heat-inactivated hydrolysis enzyme (protein, UniProt P00780 106-379, looked up)
Subtilisin Carlsberg: AQTVPYGIPLIKADKVQAQGFKGANVKVAVLDTGIQASHPDLNVVGGASFVAGEAYNTDGNGHGTHVAGTVAALDNTTGVLGVAPSVSLYAVKVLNSSGSGSYSGIVSGIEWATTNGMDVINMSLGGASGSTAMKQAVDNAYAKGVVVVAAAGNSGSSGNTNTIGYPAKYDSVIAVGAVDSNSNRASFSSVGAELEVMAPGAGVYSTYPTNTYATLNGTSMASPHVAGAAALILSKHPNLSASQVRNRLSSTATYLGSSFYYGKGLINVEAAAQ
- ACE inhibiting action (in words) (ACE): neither the inactivated enzymes, individually or as a mixture, nor the protein had an effect on ACE

B2: trypsin: trypsin obtained from porcine pancreas (EC 3.4.21.4), heat-inactivated hydrolysis enzyme (protein, UniProt P00761 9-231, looked up)
Trypsin: IVGGYTCAANSIPYQVSLNSGSHFCGGSLINSQWVVSAAHCYKSRIQVRLGEHNIDVLEGNEQFINAAKIITHPNFNGNTLDNDIMLIKLSSPATLNSRVATVSLPRSCAAAGTECLISGWGNTKSSGSSYPSLLQCLKAPVLSDSSCKSSYPGQITGNMICVGFLEGGKDSCQGDSGGPVVCNGQLQGIVSWGYGCAQKNKPGVYTKVCNYVNWIQQTIAAN
- ACE inhibiting action (in words) (ACE): neither the inactivated enzymes, individually or as a mixture, nor the protein had an effect on ACE
